In patent publication US9815796B2 (Merck Sharp & Dohme Corp., priority 2013, dated 2017):
Where two headings read alike, the source gives them in different places.

What was measured:
human PDE2A1 = human PDE2A1 (Homo sapiens (Human), UniProt O00408); experiment: IMAP FP PDE selectivity panel, human PDE2A1; type: biochemical
Procedure, shortened: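 IMAP FP format: substrate 50 nM FAM-cAMP plus 1000 nM cGMP, enzyme (insect-cell GST-tagged human PDE2A1) at ~20% conversion, 60 min reaction at room temperature. Apparent inhibition constants calculated from parallel/perpendicular fluorescence with KM 10,000 nM.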

Rhesus PDE2A3 = Rhesus PDE2A3 (Macaca mulatta, UniProt B3VTJ2); experiment: PDE2 fluorescence polarization (IMAP FP) inhibition assay, rhesus enzyme; type: biochemical, rhesus macaque
Rhesus PDE2A3, sequence (B3VTJ2 1-941): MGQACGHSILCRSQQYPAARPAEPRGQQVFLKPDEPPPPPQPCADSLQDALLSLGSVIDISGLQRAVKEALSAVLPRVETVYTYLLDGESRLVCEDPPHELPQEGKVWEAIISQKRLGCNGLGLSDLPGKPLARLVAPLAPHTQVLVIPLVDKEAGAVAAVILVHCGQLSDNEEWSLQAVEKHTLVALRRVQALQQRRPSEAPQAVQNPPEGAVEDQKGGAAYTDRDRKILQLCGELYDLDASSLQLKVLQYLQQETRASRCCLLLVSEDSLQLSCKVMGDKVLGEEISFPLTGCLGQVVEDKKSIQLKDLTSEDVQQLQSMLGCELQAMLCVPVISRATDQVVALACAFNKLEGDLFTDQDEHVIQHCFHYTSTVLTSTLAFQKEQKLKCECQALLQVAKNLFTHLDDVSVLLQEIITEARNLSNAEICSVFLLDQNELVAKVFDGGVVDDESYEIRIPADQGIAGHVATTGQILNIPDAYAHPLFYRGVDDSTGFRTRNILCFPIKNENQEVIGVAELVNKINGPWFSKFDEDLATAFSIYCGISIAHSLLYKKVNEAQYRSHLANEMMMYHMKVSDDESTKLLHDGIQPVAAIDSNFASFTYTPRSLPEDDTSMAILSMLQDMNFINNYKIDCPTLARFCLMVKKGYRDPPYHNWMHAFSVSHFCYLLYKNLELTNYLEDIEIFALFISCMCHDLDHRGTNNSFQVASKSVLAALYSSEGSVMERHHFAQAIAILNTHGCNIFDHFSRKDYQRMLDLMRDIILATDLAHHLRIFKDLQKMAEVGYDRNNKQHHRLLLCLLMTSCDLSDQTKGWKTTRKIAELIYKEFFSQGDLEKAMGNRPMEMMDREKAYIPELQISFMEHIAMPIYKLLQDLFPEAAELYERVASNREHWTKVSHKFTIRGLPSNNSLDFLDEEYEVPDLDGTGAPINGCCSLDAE
Procedure, shortened: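 IMAP FP (mP from parallel and perpendicular fluorescence against substrate-only control) was read ≥1 h after adding binding reagent. The preceding 60 min room-temperature reaction contained FAM-cAMP (50 nM) and cGMP (1 uM) in pH 7.2 Tris buffer with MgCl2 and DTT. Enzyme was supernatant of sonicated AD293 cells expressing rhesus PDE2A3; compounds were 3-fold titrated, DMSO 1% final.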

[1] = Human PDE2, Lab A, read-out: Human PDE2 Ki (nM) - Lab A
[2] = Rhesus PDE2, Lab A, read-out: Rhesus PDE2 Ki (nM) - Lab A
[3] = Human PDE2, Lab B, read-out: Human PDE2 Ki (nM) - Lab B
[4] = Rhesus PDE2, Lab B, read-out: Rhesus PDE2 Ki (nM) - Lab B

human PDE2A1, sequence (O00408 other isoform, or with tags, fused parts or gaps): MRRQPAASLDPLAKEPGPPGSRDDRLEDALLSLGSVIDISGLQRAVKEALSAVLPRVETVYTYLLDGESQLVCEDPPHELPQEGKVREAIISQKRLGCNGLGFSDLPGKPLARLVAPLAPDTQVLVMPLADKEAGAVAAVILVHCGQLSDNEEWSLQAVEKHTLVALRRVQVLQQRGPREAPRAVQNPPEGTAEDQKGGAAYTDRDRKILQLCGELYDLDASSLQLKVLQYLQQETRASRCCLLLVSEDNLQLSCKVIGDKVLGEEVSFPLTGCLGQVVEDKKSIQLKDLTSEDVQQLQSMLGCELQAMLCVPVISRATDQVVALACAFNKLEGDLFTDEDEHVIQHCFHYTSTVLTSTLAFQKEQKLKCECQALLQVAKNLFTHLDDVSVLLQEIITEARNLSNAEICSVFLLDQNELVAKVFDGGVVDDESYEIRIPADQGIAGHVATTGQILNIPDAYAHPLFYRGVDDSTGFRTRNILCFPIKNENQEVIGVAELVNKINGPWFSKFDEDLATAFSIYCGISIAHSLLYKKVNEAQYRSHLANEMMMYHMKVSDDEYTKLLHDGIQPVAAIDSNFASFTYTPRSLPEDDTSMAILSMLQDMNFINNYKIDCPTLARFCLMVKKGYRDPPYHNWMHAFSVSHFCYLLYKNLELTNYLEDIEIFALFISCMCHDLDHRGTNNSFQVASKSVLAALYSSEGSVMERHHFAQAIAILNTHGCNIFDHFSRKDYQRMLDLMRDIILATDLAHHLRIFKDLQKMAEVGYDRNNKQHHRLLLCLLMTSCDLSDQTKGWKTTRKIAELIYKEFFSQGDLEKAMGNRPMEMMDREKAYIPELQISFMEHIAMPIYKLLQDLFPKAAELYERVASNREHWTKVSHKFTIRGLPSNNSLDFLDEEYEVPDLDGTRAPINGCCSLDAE

| Compound | Ki (human PDE2A1; [1]) [nM] | Ki (Rhesus PDE2A3; [2]) [nM] | Ki (human PDE2A1; [3]) [nM] | Ki (Rhesus PDE2A3; [4]) [nM] |
| --- | --- | --- | --- | --- |
| O=C(NCc1ccc(C2CC2)cc1)c1cc(=O)[nH]c(-c2ccccc2)n1 [Example 182, N-(4-cyclopropylbenzyl)-6-oxo-2-phenyl-1,6-dihydropyrimidine-4-carboxamide] | 118 | 141 | – | – |
| C[C@@H](NC(=O)c1cc(=O)[nH]c(-c2ccccc2)n1)c1ccc(SC(F)(F)F)cc1 [Example 142, 6-Oxo-2-phenyl-N-[(1R)-1-{4-[(trifluoromethyl)sulfanyl]phenyl}ethyl]-1,6-dihydropyrimidine-4-carboxamide] | 1.5 | 1.4 | – | – |
| CC[C@@H](NC(=O)c1cc(=O)[nH]c(Cc2ccc(OC)c(F)c2)n1)c1ccc(SC(F)(F)F)c(F)c1 [Example 519, 2-(3-fluoro-4-methoxybenzyl)-N-[(1R)-1-{3-fluoro-4-[(trifluoromethyl)sulfanyl]phenyl}propyl]-6-oxo-1,6-dihydropyrimidine-4-carboxamide] | – | – | 2 | 1.7 |
| COc1cc(OC(F)(F)F)ccc1C(C)NC(=O)c1cc(=O)[nH]c(-c2ccccc2)n1 (stereo not drawn) [Example 187, N-{1-[2-methoxy-4-(trifluoromethoxy)phenyl]ethyl}-6-oxo-2-phenyl-1,6-dihydropyrimidine-4-carboxamide] | 3.1 | 4.5 | – | – |
| CSCC(NC(=O)c1cc(=O)[nH]c(-c2ccccc2)n1)c1ccc(C(F)(F)F)cc1 (stereo not drawn) [Example 341, N-{2-(methylsulfanyl)-1-[4-(trifluoromethyl)phenyl]ethyl}-6-oxo-2-phenyl-1,6-dihydropyrimidine-4-carboxamide] | – | ~11 | 19 | 24 |
| O=C(N[C@@H](c1ccc(S(F)(F)(F)(F)F)cc1)C1CC1)c1cc(=O)[nH]c(-c2ncccn2)n1 [Example 412, N-{(R)-cyclopropyl[4-(pentafluoro-λ^6-sulfanyl)phenyl]methyl}-6-oxo-1,6-dihydro-2,2′-bipyrimidine-4-carboxamide] | – | – | 10 | 9.9 |
| CC(C)[C@@H](NC(=O)c1cc(=O)[nH]c(-c2ccccc2)n1)c1ccc(C(F)(F)F)c(F)c1 [Example 383, N-{(1R)-1-[3-fluoro-4-(trifluoromethyl)phenyl]-2-methylpropyl}-6-oxo-2-phenyl-1,6-dihydropyrimidine-4-carboxamide] | – | – | 2.9 | 4.2 |
| Cc1nc(C(=O)N[C@@H](c2ccc(SC(F)(F)F)cc2)C2CC2)cc(=O)[nH]1 [Example 41, N-[(R)-cyclopropyl{4-[(trifluoromethyl)sulfanyl]phenyl}methyl]-2-methyl-6-oxo-1,6-dihydropyrimidine-4-carboxamide] | 5.2 | 9.2 | – | – |
| CC[C@@H](NC(=O)c1cc(=O)[nH]c(C)n1)c1ccc(SC(F)(F)F)cc1 [Example 29, 2-methyl-6-oxo-N-[(1R)-1-{4-[(trifluoromethyl)sulfanyl]phenyl}propyl]-1,6-dihydropyrimidine-4-carboxamide] | 4.9 | 9.2 | – | – |
| C[C@@H](O)[C@@H](NC(=O)c1cc(=O)[nH]c(-c2ccccc2)n1)c1ccc(C(F)(F)F)cc1 [Example 392, N-{(1S,2R)-2-hydroxy-1-[4-(trifluoromethyl)phenyl]propyl}-6-oxo-2-phenyl-1,6-dihydropyrimidine-4-carboxamide] | – | – | 3.3 | 5.5 |
| C[C@@H](NC(=O)c1cc(=O)[nH]c(-c2ccccc2)n1)c1ccc(CC(F)(F)F)cc1 [Example 183, 6-oxo-2-phenyl-N-{(1R)-1-[4-(2,2,2-trifluoromethyl)phenyl]ethyl}-1,6-dihydropyrimidine-4-carboxamide] | 4.1 | 6.4 | – | – |
| C[C@@H](NC(=O)c1cc(=O)[nH]c(Cc2ccccc2)n1)c1ccc(C(F)(F)F)cc1 [Example 133, 2-benzyl-6-oxo-N-{(1R)-1-[4-(trifluoromethyl)phenyl]ethyl}-1,6-dihydropyrimidine-4-carboxamide] | 20 | 21 | – | – |
| CC(NC(=O)c1cc(=O)[nH]c(-c2ncccn2)n1)c1ccc(C2CC2)cc1 (stereo not drawn) [Example 83, N-[1-(4-cyclopropylphenyl)ethyl]-6-oxo-1,6-dihydro-2,2′-bipyrimidine-4-carboxamide] | ~5.4 | 21 | 27 | 26 |
| Cc1nc(C(=O)N[C@H](C)c2cc(F)c(C(F)(F)F)c(F)c2)cc(=O)[nH]1 [Example 26, N-{(1R)-[3,5-difluoro-4-(trifluoromethyl)phenyl]ethyl}-2-methyl-6-oxo-1,6-dihydropyrimidine-4-carboxamide] | 104 | 231 | – | – |
| COc1ccc(Cc2nc(C(=O)N[C@@H](c3ccc(SC(F)(F)F)cc3)C(C)C)cc(=O)[nH]2)cc1 [Example 469, 2-(4-methoxybenzyl)-N-[(1R)-2-methyl-1-{4-[(trifluoromethyl)sulfanyl]phenyl}propyl]-6-oxo-1,6-dihydropyrimidine-4-carboxamide] | – | – | 0.91 | 0.96 |
| CCc1ccc(C(C)NC(=O)c2cc(=O)[nH]c(C)n2)cc1 (stereo not drawn) [Example 268, N-[1-(4-ethylphenyl)ethyl]-2-methyl-6-oxo-1,6-dihydropyrimidine-4-carboxamide] | 83 | 146 | – | – |
| O=C(NC1(c2ccc(SC(F)(F)F)c(F)c2)CC1)c1cc(=O)[nH]c(-c2ncccn2)n1 [Example 253, N-(1-{3-fluoro-4-[(trifluoromethyl)sulfanyl]phenyl}cyclopropyl)-6-oxo-1,6-dihydro-2,2′-bipyrimidine-4-carboxamide] | 17 | 14 | – | – |
| O=C(N[C@H](CC(F)(F)F)c1ccc(C(F)(F)F)cc1)c1cc(=O)[nH]c(-c2ccccc2)n1 [Example 353, 6-oxo-2-phenyl-N-{(1R)-3,3,3-trifluoro-1-[4-(trifluoromethyl)phenyl]propyl}-1,6-dihydropyrimidine-4-carboxamide] | – | ~9.2 | 21 | 23 |
| C[C@@H](NC(=O)c1cc(=O)[nH]c(C2CC2)n1)c1cc(F)c(C(F)(F)F)cc1F [Example 440, 2-cyclopropyl-N-{(1R)-1-[2,5-difluoro-4-(trifluoromethyl)phenyl]ethyl}-6-oxo-1,6-dihydropyrimidine-4-carboxamide] | – | – | 60 | 51 |
| Cc1nc(C(=O)N[C@H](C)c2ccc(-c3ccc(F)cc3)cc2)cc(=O)[nH]1 [Example 322, N-[(1R)-1-(4′-fluorobiphenyl-4-yl)ethyl]-2-methyl-6-oxo-1,6-dihydropyrimidine-4-carboxamide] | 171 | 205 | – | – |
| O=C(NC1(c2ccc(SC(F)(F)F)c(F)c2)CC1)c1cc(=O)[nH]c(C2CC2)n1 [Example 252, 2-cyclopropyl-N-(1-{3-fluoro-4-[(trifluoromethyl)sulfanyl]phenyl}cyclopropyl)-6-oxo-1,6-dihydropyrimidine-4-carboxamide] | ~13 | 8.7 | 20 | 14 |
| O=C(N[C@@H](c1ccc(S(F)(F)(F)(F)F)cc1)C1CC1)c1cc(=O)[nH]c(C2CC2)n1 [Example 397, 2-cyclopropyl-N-{(R)-cyclopropyl[4-(pentafluoro-λ^6-sulfanyl)phenyl]methyl}-6-oxo-1,6-dihydropyrimidine-4-carboxamide] | – | – | 8.6 | 8.2 |
| O=C(N[C@@H](c1ccc(C(F)(F)F)c(F)c1)C1CC1)c1cc(=O)[nH]c(C2CC2)n1 [Example 210, 2-cyclopropyl-N-{(R)-cyclopropyl[3-fluoro-4-(trifluoromethyl)phenyl]methyl}-6-oxo-1,6-dihydropyrimidine-4-carboxamide] | 3 | 6 | – | – |
| Cc1nc(C(=O)N[C@@H](c2ccc(OC(F)(F)F)c(F)c2)C(C)C)cc(=O)[nH]1 [Example 38, N-{(1R)-1-[3-fluoro-4-(trifluoromethoxy)phenyl]-2-methylpropyl}-2-methyl-6-oxo-1,6-dihydropyrimidine-4-carboxamide] | 5.6 | 7.8 | – | – |
| COc1ccc(Cc2nc(C(=O)N[C@@H](c3ccc(S(F)(F)(F)(F)F)cc3)C(C)C)cc(=O)[nH]2)cc1F [Example 513, 2-(3-fluoro-4-methoxybenzyl)-N-{(1R)-2-methyl-1-[4-(pentafluoro-λ^6-sulfanyl)phenyl]propyl}-6-oxo-1,6-dihydropyrimidine-4-carboxamide] | – | – | 1.9 | 2.1 |
| COc1ccc(Cc2nc(C(=O)N[C@@H](c3ccc(SC(F)(F)F)cc3)C3CC3)cc(=O)[nH]2)cc1F [Example 523, N-[(R)-cyclopropyl{4-[(trifluoromethyl)sulfanyl]phenyl}methyl]-2-(3-fluoro-4-methoxybenzyl)-6-oxo-1,6-dihydropyrimidine-4-carboxamide] | – | – | 2.1 | 2.8 |
| COc1ccc(C(C)(C)c2nc(C(=O)N[C@@H](c3ccc(OC(F)(F)F)cc3)C3CC3)cc(=O)[nH]2)cc1 [Example 501, N-{(R)-cyclopropyl[4-(trifluoromethoxy)phenyl]methyl}-2-[1-(4-methoxyphenyl)-1-methylethyl]-6-oxo-1,6-dihydropyrimidine-4-carboxamide] | – | – | 64 | 77 |
| O=C(NCc1ccc(C(F)(F)F)cc1)c1cc(=O)[nH]c(-c2ccccc2)n1 [Example 371, 6-oxo-2-phenyl-N-[4-(trifluoromethyl)benzyl]-1,6-dihydropyrimidine-4-carboxamide] | – | 68 | 117 | 150 |
